This is an account of results in patent publication US20050260253A1, “Transmucosal gel formulations” (Recordati Ireland Limited, priority 2004, published 2005).

Like-named read-outs stand apart in the source and are kept apart here.

For series [1], the system named is genital blood flow in female anesthetized rabbits. The experiment in a line: Genital tissue oxyhemoglobin (genital engorgement) by laser oximetry, basal and after pelvic nerve stimulation, in vivo model of female sexual arousal. Details: species or system rabbit (New Zealand White). To be noted: for nerve-induced increase in genital tissue OxyHb: topical vaginal formulation; for mean AUC of genital tissue OxyHb compared to vehicle-treated control group: 15-35 min; for response to pelvic nerve stimulation (genital tissue oxyhemoglobin) vs control stimulations: vaginal submucosal injection 100 μg. The method, then: The effect of Rec 15/2615 formulation on genital blood flow, a physiologic parameters of female sexual arousal, was measured in both the basal, non-aroused state and following stimulation of the pelvic nerve, which mimics the sexually aroused state, in an established in vivo animal model of female sexual arousal (see, e.g., Munarriz, R., et al., 2003, A review of the physiology and pharmacology of peripheral (vaginal and clitoral) female genital arousal in the animal model, J. Urol. 170(2 Pt 2):S40-44; Min, K., et al., 2000, Sildenafil augments pelvic nerve-mediated female genital sexual arousal in the anesthetized rabbit. Intl. J. Impot. Res. 12(Suppl)3:S32-39; Tarcan, T., et al., 2000, Systemic administration of apomorphine improves the hemodynamic mechanism of clitoral and vaginal engorgement in the rabbit. Int J Impot Res. 12:235-240; Park, K., et al., 1997, Vasculogenic female sexual dysfunction: the hemodynamic basis for vaginal engorgement insufficiency and clitoral erectile insufficiency. Intl. J. Impot. Res. 9:27-37). Each of the foregoing references is incorporated herein by reference in its entirety.
(§1) Female New Zealand White rabbits (4.5 to 5 kg) were anesthetized by intramuscular injection of ketamine (35 mg/kg) and xylazine (5 mg/kg) and secured in the supine position. Anesthesia was maintained as needed with additional intramuscular xylazine (5 mg/ml). A midline neck incision (3 cm) was fashioned to access the carotid artery. A 20-gauge angiocatheter was inserted into the carotid artery for systemic blood pressure measurements. […] Body temperature was maintained with an electric heat pad. Following subcutaneous lidocaine injection, the perivesical space was exposed through a mid-line abdominal incision. The pelvic nerve was identified and carefully dissected under the perivesical fat on the postero-lateral aspect of the upper vagina. Bladder contents were aspirated through the bladder wall with an 18 gauge needle and 50 ml syringe. Under direct vision, a bipolar platinum wire electrode was hooked onto the pelvic nerve without cutting the nerve. Unilateral pelvic nerve stimulation was accomplished with a Grass SD9 stimulator set at normal polarity and repeat mode to generate a 30 second train of square waves with 10 V pulse amplitude, 0.8 msec pulse duration and 2-6 Hz frequency. A laser Doppler flowmetry surface probe (model BLF21D, Transonic System Inc, Ithaca, N.Y., USA) was placed into the rabbit vagina and used to confirm unilateral pelvic nerve stimulation. The interval between stimulations was 10-15 min to prevent nerve exhaustion.
Tissue hemoglobin concentration was determined by a near infrared optical spectroscopy technique using a dual channel laser oximeter (model 96208; ISS, Inc., Champaign, Ill.). This technique utilizes a continuous wave optical spectrometer with a fiber optic array probe consisting of one detector and 8 light sources. The sources emit light in the near infrared spectrum (700-900 nm) which can penetrate a targeted volume of tissue (˜530 mm^3) to an average depth of 7.2 mm beneath the optical fibers. By detecting scattered light, absorption by oxyhemoglobin (OHb) and deoxyhemoglobin can be quantified and total hemoglobin can be calculated. Laser oximetry can thus be utilized to assess local tissue hemodynamics in a non-invasive and continuous fashion. The skin around the labia was carefully shaved to ensure good contact with the optical fibers. The probe (2 cm in length) was positioned longitudinally on the skin overlying the clitoris, labia and vagina, such that the detector fiber was positioned just below the pubic arch. The probe assembly was secured in place by a metal stand. The area over the probe was covered with a black cloth to prevent any interference from natural or artificial ambient light sources.
A flexible 18 gauge catheter was attached to a syringe loaded with hydrogel formulation. The catheter was filled until the formulation reached 3-5 mm from the open end. […]

Series [2] can be described thus: Plasma concentration of Rec 15/2615 by LC/MS-MS after vaginal application or submucosal injection. Type of series: in vivo, rabbit. To be noted: for concentration at 15 min: female, rabbit, plasma, read-out: Mean plasma levels of Rec 15/2615. As for the experimental part:
A flexible 18 gauge catheter was attached to a syringe loaded with hydrogel formulation. The catheter was filled until the formulation reached 3-5 mm from the open end. The catheter was placed 2.5 cm into the vagina and secured to the labia with suture to prevent migration. The syringe was placed on the heating pad to keep the formulation warm. Following control nerve stimulations, 1 ml of formulation was infused into the vagina. Pelvic nerve stimulation was repeated 15 min and 30 min afterwards. Nerve stimulation at the 15 min time point coincided with the time of maximal serum concentration.
Rec 15/2615 hydrochloride (1 mg/ml) was dissolved in 10% (v/v) N,N-dimethylformamide. Prior to the application of the laser oximeter probe, Rec 15/2615 hydrochloride solution was loaded into two 23 gauge infusion sets connected to 1 ml syringes (50 μl per infusion set). Needles were inserted into the distal vaginal wall, just below the mucosal surface, at the 3 and 9 o'clock positions. Following control nerve stimulations, drug was infused into the vagina. Pelvic nerve stimulation was repeated 15 min and 30 min after drug administration.
Blood samples (˜2 ml) were obtained from the carotid artery prior to formulation administration and then […] after formulation administration. Samples were collected in heparinized syringes and transferred into pre-cooled polypropylene tubes on ice. Plasma was obtained by centrifugation at 1200×g for 2 min at 4° C. and stored at −20° C.
0.1 mL of rabbit plasma was transferred to an Eppendorf tube and 10 μL of internal standard methanolic solution (0.2 μg/mL of 4-amino-6,7-dimethoxy-2-[4-(2-isopropyl-5-methylphenoxy acetyl)-1-piperazinyl]quinazoline (Rec 15/2693) in methanol) were added. 1 mL of acetonitrile was added to each sample and samples were shaken on a multimixer shaker for 1 min. Protein was allowed to precipitate and samples were then centrifuged at 4° C. for 10 min at 2700 g. The organic layer was transferred to a new glass tube and evaporated at 45° C. under a stream of nitrogen. The residue was dissolved in 250 μL of buffer solution containing methanol/10 mM ammonium formate, pH 3.5 (40:60; v/v). Samples were mixed 1 min using a vortex mixer and clarified by centrifugation (5 min×2700 g). The clarified solution was transferred into an autosampler vial. Aliquots of 20 μL were analyzed by LC/MS-MS.

The next series concerns systemic blood pressure. The experiment in a line: Systemic blood pressure via carotid artery catheter in anesthetized rabbits. In kind it is in vivo, rabbit (New Zealand White). As for the experimental part:
as §1, with “The interval between stimulations was 10-15 min to prevent nerve exhaustion.” left out

As for `COc1cc2nc(N3CCN(C(=O)COc4c(OC)cccc4C(C)C)CC3)nc(N)c2cc1OC.Cl.Cl` [Rec 15/2615 hydrochloride], the “effect on genital tissue oxyhemoglobin administered as a gel compared with direct submucosal injection” value in series [1] (formulations 0.075% and 0.15% vs submucosal injection, considering plasma levels at 15 min) is recorded as “higher than that obtained by direct injection”.

Consider `COc1cc2nc(N3CCN(C(=O)COc4c(OC)cccc4C(C)C)CC3)nc(N)c2cc1OC` [Rec 15/2615, 4-amino-6,7-dimethoxy-2-{4-[(2-isopropyl-6-methoxyphenoxy)acetyl]-1-piperazinyl}quinazoline], for which the concentration at 15 min came out at 26.3 ng/mL in series [2] (other: submucosal injection into the distal vaginal wall, 15 min after direct submucosal injection of 0.1 mg); 10.6 ng/mL in series [2] (other: vaginal application, 15 min after vaginal application of 1 ml of formulation 0.075%); 45.2 ng/mL in series [2] (other: vaginal application, 15 min after vaginal application of 1 ml of formulation 0.15%); 72.5 ng/mL in series [2] (other: vaginal application, 15 min after vaginal application of 1 ml of formulation 0.3%). Also, in series [2] (vaginal application, 0.075-0.3%), the “plasma levels with increasing concentration of active compound in the formulation” value is on record as “dose-dependent increase”. The “nerve-induced increase in genital tissue OxyHb” value in series [1] (pelvic nerve stimulation at 15 min) is reported as “significant increase”; in series [1] (pelvic nerve stimulation at 30 min) it was “remained high”. Moreover, in series [1] (topical vaginal, 0-35 min, dose-dependent trend), the “AUC of genital tissue OxyHb relative to vehicle” value is “higher AUC values relative to vehicle”. The “mean AUC of genital tissue OxyHb compared to vehicle-treated control group” value in series [1] (topical vaginal, 1 ml formulation 0.15%) is “statistically significant difference”; in series [1] (topical vaginal, 1 ml formulation 0.3%), “statistically significant difference”. In addition, in series [1] (topical vaginal, 1 ml formulation, 0-15 min, all concentrations except 0.15%), the “mean area-under-the-curve (AUC) of genital tissue OxyHb compared to vehicle” value is on record as “similar”. Moreover, the “duration of sustained genital engorgement following formulation administration” value in series [1] (topical vaginal, duration of the experimental protocol) was “up to 45 minutes”. The entries for the “response to pelvic nerve stimulation (genital tissue oxyhemoglobin) vs control stimulations” value in series [1] (15 min after injection) and in series [1] (30 min after injection) were “significantly enhanced response” and “did not reach statistical significance”, respectively. Moreover, the “effect on blood pressure” value in the series with systemic blood pressure (topical vaginal administration, 0.075-0.3% formulations) is “no significant effect”. For the same compound, the “effect on systemic blood pressure” value in the series with systemic blood pressure (vaginal submucosal injection (data not shown)) is given as “did not affect systemic blood pressure”.
